From patent US9434684B2, “Oxime-substituted amide compound and pest control agent” (Nissan Chemical Industries, Ltd., priority 2012, dated 2016)

Key:
Botrytis cinerea [1] = test: Preventive effect against cucumber gray mold (mycelium inoculation); format: in vivo; conditions: 48 h, test solution A 500 ppm, 2 days
Protocol: (§1) Compounds of the present invention were dissolved in a solvent for emulsion (a mixture of Sorpol (registered trademark) 3005XL (manufactured by Toho Chemical Industry Co., Ltd.): N-methylpyrrolidone:Solvesso (registered trademark) 200 (manufactured by ExxonMobil Chemical) in a ratio of 1:5:2) to prepare 20% emulsifiable concentrates. Then, distilled water was added to dilute the emulsifiable concentrates to the predetermined concentration (500 ppm), and the obtained solutions were used in the following Test Examples 1 to 7. Cucumber (cultivar: Sagami Hanjiro) was planted in 90 cm^3 plastic pots, and in the seed leaf stage, 5 ml per pot of test solutions A of the compounds of the present invention were applied. On the next day, the pots were put in a plastic container, and agar blocks (diameter: 5 mm) containing Botrytis cinerea preliminarily cultivated in a PDA medium were inoculated to the seed leaves of the cucumber treated with the solutions. After the inoculation, the plastic container was covered with a plastic sheet and humidified, and placed at 20° C. for 2 days, whereupon the proportion of the formed lesion in the inoculated leaves was measured to calculate the control value in accordance with the same formula as in Test Example 1. Here, the test was carried out in duplicate.

Sclerotinia sclerotiorum = test: Preventive effect against cucumber stem rot; format: in vivo; conditions: 48 h, test solution A 500 ppm, 2 days
Protocol: as §1, with “After drying in air,” for “On the next day,”, “Sclerotinia sclerotiorum” for “Botrytis cinerea”

[2] = tested on: Phaeosphaeria nodorum (synonym: Septoria nodorum); test: Preventive effect against wheat glume blotch; format: in vivo; conditions: Parastagonospora nodorum, 192 h, test solution A 500 ppm, 2 + 6 days
Protocol: (§2) Compounds of the present invention were dissolved in a solvent for emulsion (a mixture of Sorpol (registered trademark) 3005XL (manufactured by Toho Chemical Industry Co., Ltd.): N-methylpyrrolidone:Solvesso (registered trademark) 200 (manufactured by ExxonMobil Chemical) in a ratio of 1:5:2) to prepare 20% emulsifiable concentrates. Then, distilled water was added to dilute the emulsifiable concentrates to the predetermined concentration (500 ppm), and the obtained solutions were used in the following Test Examples 1 to 7. To wheat (cultivar: Haruyutaka) in 1.3-leaf stage planted in 90 cm^3 plastic pots, 5 ml per pot of test solutions A of the compounds of the present invention were applied. On the next day, a suspension of conidium of Phaeosphaeria nodorum synonym: Septoria nodorum) was spray-inoculated to the wheat, and the pots were placed in an inoculation chamber at 20° C. under a humidity of 100% for 2 days. Then, the pots were placed in an air-conditioned greenhouse (20° C.) for 6 days. The proportion of the formed lesion in the inoculated leaves was measured to calculate the control value in accordance with the same formula as in Test Example 1. Here, the test was carried out in duplicate.

Botrytis cinerea [3] = test: Preventive effect against cucumber gray mold (spore inoculation); format: in vivo; conditions: 72 h, cucumber leaves, test solution A 500 ppm, 3 days
Protocol: Compounds of the present invention were dissolved in a solvent for emulsion (a mixture of Sorpol (registered trademark) 3005XL (manufactured by Toho Chemical Industry Co., Ltd.): N-methylpyrrolidone:Solvesso (registered trademark) 200 (manufactured by ExxonMobil Chemical) in a ratio of 1:5:2) to prepare 20% emulsifiable concentrates. Then, distilled water was added to dilute the emulsifiable concentrates to the predetermined concentration (500 ppm), and the obtained solutions were used in the following Test Examples 1 to 7. Cucumber (cultivar: Sagami Hanjiro) was planted in 90 cm^3 plastic pots, and in the seed leaf stage, 5 ml per pot of test solutions A of the compounds of the present invention were applied. After drying in air, the treated leaves were cut and put in plastic containers. 30 μl of a mixture of a suspension of conidium of Botrytis cinerea and a dissolved PDA medium in a ratio of 1:1 was dropped on each treated leaf and inoculated. After the inoculation, the plastic containers were placed at 20° C. in humid conditions for 3 days, and the proportion of the formed lesion in the inoculated leaves was measured to calculate the control value in accordance with the same formula as in Test Example 1. Here, the test was carried out in duplicate.

Puccinia recondita = test: Preventive effect against wheat brown leaf rust; format: in vivo; conditions: 216 h, test solution A 500 ppm, 1 + 8 days
Protocol: as §2, with “Norin-61-go)” for “Haruyutaka)”, “spore” for “conidium”, “Puccinia recondita” for “Phaeosphaeria nodorum synonym: Septoria nodorum)”, “1 day.” for “2 days.”, “8” for “6”

Botrytis cinerea [4] = test: Preventive effect against cucumber gray mold (mycelium inoculation); format: in vivo; conditions: 48 h, 100 ppm solution (*), 2 days
Botrytis cinerea [5] = test: Preventive effect against cucumber gray mold (spore inoculation); format: in vivo; conditions: 72 h, cucumber leaves, 100 ppm solution (*), 3 days
Meloidogyne incognita = test: Preventive effect on Meloidogyne incognita (garden balsam seedlings, root knot); format: in vivo; conditions: 504 h, test solution B 100 ppm, 1 ml per seedling, 3 weeks, read-out: efficacy (damage degree, root knot, relative to non-treated plot)
Protocol: Compounds of the present invention were dissolved in dimethylsulfoxide to prepare 1% solutions. Then, distilled water was added to dilute the solutions to the predetermined concentration (100 ppm), and the obtained solutions were used in the following Test Examples 8 to 12. 1 ml per seedling of test solutions B of the compounds of the present invention were treated to the bases of garden balsam seedlings (about 2 weeks after budding) planted in a cell tray of which each cell was filled with 10 g of soil. 1 Hour after the application, 1 ml per cell of water containing Meloidogyne incognita 2 L larvae (100 2 L larvae/1 ml) was applied to the bases. The tray was placed in a greenhouse for 3 weeks, and the root knot level formed on the root was determined in accordance with the following damage index and the damage degree to calculate the efficacy (%) relative to the non-treated plot in accordance with the following formula. <Damage Index> 0: No knot observed. 1: Knot observed on a part of the root system. 2: Knot observed on the entire root system. 3: Large knot observed. 4: Large knot observed on the entire root system. [Damage degree]=[Σ(damage index×number of seedlings at each index)/(4×number of seedlings investigated)]×100 Efficacy(%)=[1−(damage degree in treated plot/damage degree in non-treated plot)]×100

Question: What does the source list for `CC(C)(C)ON=C(CNC(=O)c1nccnc1C(F)(F)F)c1ncc(Cl)cc1Cl` (single isomer, unassigned) [9-006, N-[2-(3,5-dichloropyridin-2-yl)-2-(tert-butoxyimino)ethyl]-3-(trifluoromethyl)pyrazine-2-carboxamide]?
Answer: pest or weed control at 500 µg/mL (Botrytis cinerea [1]): ≥ 70%; pest or weed control at 500 µg/mL (Sclerotinia sclerotiorum): ≥ 70%

Question: For `CCO/N=C(\c1ncc(Cl)cc1Cl)[C@H](C)NC(=O)c1ccccc1C(F)(F)F` [2-124, (S)—N-[2-(3,5-dichloropyridin-2-yl)-2-[(Z)-ethoxyimino]-1-methylethyl]-2-(trifluoromethyl)benzamide], which pest or weed control at 500 µg/mL (Botrytis cinerea [1]) is on record?
Answer: ≥ 70%

Question: What about the pest or weed control at 500 µg/mL [2] of the same compound?
Answer: ≥ 70%

Question: And the pest or weed control at 500 µg/mL (Botrytis cinerea [3])?
Answer: ≥ 70%

Question: What about the pest or weed control at 500 µg/mL (Puccinia recondita) of the same compound?
Answer: ≥ 70%

Question: What about the pest or weed control at 500 µg/mL (Sclerotinia sclerotiorum) of the same compound?
Answer: ≥ 70%

Question: What does the source list for `CON=C(CN(C(C)=O)C(=O)c1ccccc1C(F)(F)F)c1ncc(Cl)cc1Cl` [4-013]?
Answer: pest or weed control at 500 µg/mL (Botrytis cinerea [1]): ≥ 70%; pest or weed control at 500 µg/mL (Botrytis cinerea [3]): ≥ 70%; pest or weed control at 500 µg/mL (Sclerotinia sclerotiorum): ≥ 70%

Question: Which pest or weed control at 500 µg/mL (Botrytis cinerea [1]) does the source give for `CON=C(CN(SC(Cl)(Cl)Cl)C(=O)c1ccccc1C(F)(F)F)c1ncc(Cl)cc1Cl` [4-015] here?
Answer: ≥ 70%

Question: What about the pest or weed control at 500 µg/mL (Botrytis cinerea [3]) of the same compound?
Answer: ≥ 70%

Question: What about the pest or weed control at 500 µg/mL (Sclerotinia sclerotiorum) of the same compound?
Answer: ≥ 70%

Question: With `CC(C)ON=C(CNC(=O)c1ccccc1C(F)(F)F)c1ncc(Cl)nc1Cl` [24-001] as the compound, how does the pest or weed control at 500 µg/mL (Botrytis cinerea [1]) read?
Answer: ≥ 70%

Question: And the pest or weed control at 500 µg/mL (Botrytis cinerea [3])?
Answer: ≥ 70%

Question: And the pest or weed control at 500 µg/mL (Sclerotinia sclerotiorum)?
Answer: ≥ 70%

Question: With `CO/N=C(/CNC(=O)c1ccccc1C(F)(F)F)c1ncc(Cl)cc1Cl` [Compound No. 2-114, (Z)—N-[2-(3,5-dichloropyridin-2-yl)-2-(methoxyimino)ethyl]-2-(trifluoromethyl)benzamide] as the compound, how does the pest or weed control at 100 ppm (Botrytis cinerea [4]) read?
Answer: ≥ 70%

Question: What about the pest or weed control at 100 ppm (Botrytis cinerea [5]) of the same compound?
Answer: ≥ 70%

Question: What about the pest or weed control at 100 µg/mL (Meloidogyne incognita) of the same compound?
Answer: ≥ 50%

Question: What about the melting point of the same compound?
Answer: 88 to 89 °C

Question: And the pest or weed control at 500 µg/mL (Sclerotinia sclerotiorum)?
Answer: ≥ 70%

Question: For `CON=C(c1ncc(Cl)cc1Cl)C(C)NC(=O)c1ccccc1C(F)(F)F` (centres unmarked) [Compound No. 2-115, N-[2-(3,5-dichloropyridin-2-yl)-2-methoxyimino-1-methylethyl]-2-(trifluoromethyl)benzamide], which pest or weed control at 500 µg/mL (Botrytis cinerea [1]) is on record?
Answer: ≥ 70%

Question: What about the pest or weed control at 500 µg/mL [2] of the same compound?
Answer: ≥ 70%

Question: What about the pest or weed control at 100 µg/mL (Meloidogyne incognita) of the same compound?
Answer: ≥ 50%

Question: And the pest or weed control at 500 µg/mL (Botrytis cinerea [3])?
Answer: ≥ 70%

Question: What about the pest or weed control at 500 µg/mL (Puccinia recondita) of the same compound?
Answer: ≥ 70%

Question: And the pest or weed control at 500 µg/mL (Sclerotinia sclerotiorum)?
Answer: ≥ 70%

Question: Which pest or weed control at 500 µg/mL (Botrytis cinerea [1]) does the source give for `CO/N=C(\c1ncc(Cl)cc1Cl)C(C)NC(=O)c1ccccc1C(F)(F)F` (centres unmarked) [Compound No. 2-117, (Z)—N-[2-(3,5-dichloropyridin-2-yl)-2-methoxyimino-1-methylethyl]-2-(trifluoromethyl)benzamide] here?
Answer: ≥ 70%

Question: And the pest or weed control at 100 µg/mL (Meloidogyne incognita)?
Answer: ≥ 50%

Question: And the pest or weed control at 500 µg/mL (Botrytis cinerea [3])?
Answer: ≥ 70%

Question: And the pest or weed control at 500 µg/mL (Puccinia recondita)?
Answer: ≥ 70%

Question: What about the melting point of the same compound?
Answer: 104 to 105 °C

Question: For `CCO/N=C(/CNC(=O)c1ccccc1C(F)(F)F)c1ncc(Cl)cc1Cl` [Compound No. 2-120, (Z)—N-[2-(3,5-dichloropyridin-2-yl)-2-(ethoxyimino)ethyl]-2-(trifluoromethyl)benzamide], which pest or weed control at 500 µg/mL (Botrytis cinerea [1]) is on record?
Answer: ≥ 70%

Question: And the pest or weed control at 500 µg/mL [2]?
Answer: ≥ 70%

Question: And the pest or weed control at 100 µg/mL (Meloidogyne incognita)?
Answer: ≥ 50%

Question: What about the pest or weed control at 500 µg/mL (Botrytis cinerea [3]) of the same compound?
Answer: ≥ 70%

Question: And the pest or weed control at 500 µg/mL (Puccinia recondita)?
Answer: ≥ 70%

Question: What about the melting point of the same compound?
Answer: 84 to 86 °C

Question: Which results are given for `CCCO/N=C(/CNC(=O)c1ccccc1C(F)(F)F)c1ncc(Cl)cc1Cl` [Compound No. 2-126, (Z)—N-[2-(3,5-dichloropyridin-2-yl)-2-(propoxyimino)ethyl]-2-(trifluoromethyl)benzamide]?
Answer: pest or weed control at 100 µg/mL (Meloidogyne incognita): ≥ 50%; pest or weed control at 500 µg/mL (Puccinia recondita): ≥ 70%; melting point: 80 to 83 °C

Question: For `CON=C(CNC(=S)c1ccccc1C(F)(F)F)c1ncc(Br)cc1Cl` [Compound No. 5-001, N-[2-(5-bromo-3-chloropyridin-2-yl)-2-(methoxyimino)ethyl]-2-(trifluoromethyl)benzthioamide], which pest or weed control at 500 µg/mL (Botrytis cinerea [1]) is on record?
Answer: ≥ 70%

Question: What about the pest or weed control at 500 µg/mL [2] of the same compound?
Answer: ≥ 70%

Question: And the pest or weed control at 500 µg/mL (Botrytis cinerea [3])?
Answer: ≥ 70%

Question: What about the pest or weed control at 500 µg/mL (Puccinia recondita) of the same compound?
Answer: ≥ 70%

Question: What about the pest or weed control at 500 µg/mL (Sclerotinia sclerotiorum) of the same compound?
Answer: ≥ 70%

Question: Which results are given for `CON=C(CN(C(=O)c1c(C(F)(F)F)nn(C)c1F)C1CC1)c1ncc(Cl)cc1Cl` [Compound No. 17-009, N-cyclopropyl-N-[2-(3,5-dichloropyridin-2-yl)-2-(methoxyimino)ethyl]-5-fluoro-1-methyl-3-trifluoromethyl-1H-pyrazole-4-carboxamide]?
Answer: pest or weed control at 500 µg/mL [2]: ≥ 70%; pest or weed control at 500 µg/mL (Botrytis cinerea [3]): ≥ 70%; melting point: 95 to 97 °C; pest or weed control at 500 µg/mL (Sclerotinia sclerotiorum): ≥ 70%
